This note sets out measurements from US20090054403A1, “Treatment of Post-Traumatic Stress Disorder” (priority 2007, published 2009).

Assay [1] has as its system dopamine and norepinephrine levels. As to the kind of experiment: 24 hour time course of tissue catecholamines in SHR after a single oral dose. It is filed as in vivo, spontaneously hypertensive rats. How it is done:
The purpose of this study was to determine the 24 hours time course of the effects of nepicastat (10 mg/kg) on dopamine and norepinephrine levels in the mesenteric artery following a single oral dose in spontaneously hypertensive rats. Catecholamine levels were measured at 1, 2, 4, 6, 8, 12, 16, and 24 hours after a single oral administration of either nepicastat (10 mg/kg) or vehicle (dH2O; 10 ml/kg).
Sixteen-17 week old, male spontaneous hypertensive rats (SHR) rats weighing 300-400 grams were allowed food and water ad libitum. Animals were weighed and randomly assigned, the afternoon before the study, to one of the following treatment groups (n=9 per group): […] of vehicle (10 ml/kg) to be sacrificed at 1, 2, 4, 6, 8, 12, 16, or 24 hours. nepicastat was synthesized as the hydrochloride salt by the Institute of Organic Chemistry, Syntex Discovery Research and obtained from Syntex Central Compound Inventory. nepicastat was dissolved in vehicle (dH2O) to yield an oral dose that could be administered in repeated volumes of 10 ml/kg. All doses of nepicastat were administered as free base equivalents and prepared the morning of administration. Animals were dosed every […] the morning of sacrifice. At 1, 2, 4, 6, 8, 12, 16 and 24 hours following administration, 9 treated animals and 9 vehicle animals were anesthetized with halothane, decapitated, and the left ventricle and mesenteric artery were rapidly harvested and weighed. The mesenteric artery was put in 0.5 ml of 0.4M perchloric acid in a centrifuge tube and the left ventricle put into an empty cryotube. Both tissues were immediately frozen in liquid nitrogen and stored at −70° C. Mesenteric artery catecholamine levels were determined using HPLC with electrochemical detection. At the time of decapitation, plasma samples were taken by draining blood from the carcass into a tube containing heparin, and centrifuging at 4° C.
Each treatment group was compared to vehicle at each time point. A two way analysis of variance (ANOVA) with effects TRT, HARVEST and their interaction was performed. A one way ANOVA with factor TRT was performed for each harvest time.

The subject of assay [2] is parkinsonian symptoms. As to the kind of experiment: Parkinsonian clinical rating scale (CRS) in MPTP-lesioned monkeys. It is filed as in vivo, squirrel monkeys (Saimiri sciureus). As to conditions: hydrochloride. How it is done: A total of 24 squirrel monkeys (Saimiri sciureus), fourteen females and ten males were used in this study. The twenty-four animals were randomly assigned to one of four treatment groups, with 6 animals per group. The groups consisted of the following (1) group A: placebo (2) group B: 1 mg/kg/day; (3) group C: 4 mg/kg/day; and (4) group D: 10 mg/kg/day. In Group B, one animal died acutely following MPTP-lesioning, and was not replaced.
Animals were lesioned by the administration of MPTP at a concentration of 2.0 mg/kg (free-base) via subcutaneous injection to achieve a parkinsonian state (see FIGS. 151-156). A post-MPTP lesioning behavioral assessment was carried out 2 to 4 weeks after the last MPTP-Iesioning. Locomotor activity was monitored by IRAM in 60-minute sessions for 3 to 5 days. Clinical behavior (CAS) was assessed by one to three individuals rating over a period of 3 to 5 days.
Animals were tested for response to L-Dopa and the efficacy of drug nepicastat. Testing was carried out 4 to 12 weeks after the last MPTP dose. Twenty-tour squirrel monkeys were randomly assigned to 4 groups; Group A (6 animals) received placebo (water) treatment; Group B (5 animals) received drug nepicastat at 1 mg/kg/day (0.5 mg/kg twice daily); Group C (6 animals) received 4 mg/kg/day (2 mg/kg twice daily); and Group D (6 animals) received 10 mg/kg/day (5 mg/kg twice daily).
L-Dopa was administered at a concentration of either 2.5, 5, or 7.5 mg/kg by oral gavage twice daily (at 10 am and 2 pm) for 7 consecutive days. Behavior was determined by IRAM and CRS. Clinical rating was carried out 60 to 90 minutes following the 10 am morning dose on the last 4 days of treatment. Raters (one to three individuals) were blinded to the different treatment groups. IRAM assessment were preformed for 90 minutes immediately following drug administration at 2 pm on the last 2 to 5 days of drug treatment. There was a minimum 2 day washout period between each treatment dose.
Drug nepicastat or water (as placebo) was administered for 12 days following a minimum 2 day washout after L-Dopa dosing. Drug was administered twice daily at 10 am and 2 pm by oral gavage. Behavior was rated by IRAM and CRS. The CRS was conducted in the morning, 60 to 90 minutes after the 10 am dose of nepicastat on the last 5 days of drug treatment. Raters (one to three individuals) were blinded to the different treatment groups. IRAM assessments were preformed for 90 minutes immediately following drug administration at 2 pm on the last 5 days of drug treatment.
Eight parkinsonian features were rated in each animal and the total score was derived from the sum of these eight features. […]

“Also recorded” adds a separate entry of the source.

For the molecule `Cl.NCc1c[nH]c(=S)n1[C@H]1CCc2c(F)cc(F)cc2C1` [nepicastat, (S)-5-Aminomethyl-1-(5,7-difluoro-1,2,3,4-tetrahydronaphth-2-yl)-2,3-dihydro-2-thioxo-1H-imidazole hydrochloride], the “duration of increase in dopamine/norepinephrine ratio” value in assay [1] (10 mg/kg oral, mesenteric artery) came to 12 h. In assay [1] (10 mg/kg single oral, 1-24 h), the “dopamine vs vehicle, mesenteric artery” value was “significantly (p<0.05) higher than those of vehicle at the 2 and 6 hr harvest times”; the “dopamine/norepinephrine ratio vs vehicle, mesenteric artery” value is “significantly (p<0.05) greater than those of vehicle treated animals at the 1, 2, 4, 6 and 12 hour time points”; the “norepinephrine vs vehicle, mesenteric artery” value is “significantly (p<0.05) lower than vehicle only at the 4 hr time point”. For the same molecule, the “duration of increase in dopamine/norepinephrine ratio” value in assay [1] (30 mg/kg oral, left ventricle) worked out at 24 h. Also, in assay [2] (1, 4, 10 mg/kg/day, 12 days, non-pairwise), the “CRS / parkinsonian symptoms compared to placebo” value is reported as “no detectable differences; also recorded: no significant effect”. In addition, the “CRS / parkinsonian symptoms compared to post-MPTP (pre-treatment) state” value in assay [2] (nepicastat 4 and 10 mg/kg/day, pairwise) was “significant improvement; also recorded: significant effect”.
